Test: xn = mol fraction of the nth substance listed
Details: 101.3 kPa, Liquid; for speed of sound: Frequency=3 MHz, Single path-length method; for mass density: Vibrating tube method

CCCC[n+]1ccn(C)c1.O=S(=O)([N-]S(=O)(=O)C(F)(F)F)C(F)(F)F + COC(=O)OC
Details	mass density, 303.15 K [kg/m3]	mass density, 308.15 K [kg/m3]	mass density, 313.15 K [kg/m3]	mass density, 318.15 K [kg/m3]	mass density, 323.15 K [kg/m3]	speed of sound, 303.15 K [m/s]	speed of sound, 308.15 K [m/s]	speed of sound, 313.15 K [m/s]	speed of sound, 318.15 K [m/s]	speed of sound, 323.15 K [m/s]
x1 = 0.0512	1120.1	1113.8	1107.5	1101.2	1094.9	1187	1167.2	1147.5	1127.6	1108.3
x1 = 0.101	1168.9	1163	1157	1151	1145	1196.1	1177.7	1159.4	1141	1123
x1 = 0.1495	1207.1	1201.3	1195.5	1189.8	1184	1203.7	1186.5	1169.4	1152.4	1135.6
x1 = 0.1945	1236.1	1230.5	1224.9	1219.3	1213.7	1209.2	1192.9	1176.8	1160.8	1144.9
x1 = 0.2994	1288.3	1282.9	1277.6	1272.2	1266.9	1215.4	1200.7	1186.2	1171.7	1157.4
x1 = 0.3999	1324.3	1319.1	1313.9	1308.8	1303.6	1217.4	1203.8	1190.3	1176.9	1163.6
x1 = 0.4976	1351.4	1346.3	1341.2	1336.2	1331.1	1217.7	1204.9	1192.1	1179.5	1166.9
x1 = 0.5842	1370.7	1365.6	1360.7	1355.7	1350.7	1217.4	1205	1192.8	1180.6	1168.6
x1 = 0.6886	1389.7	1384.8	1379.8	1374.9	1370.1	1217.4	1205.5	1193.7	1182.1	1170.5
x1 = 0.7475	1399	1394.1	1389.2	1384.3	1379.5	1217.2	1205.6	1194	1182.6	1171.3
x1 = 0.8014	1406.6	1401.8	1396.9	1392.1	1387.3	1217	1205.6	1194.2	1183	1171.8
x1 = 0.889	1417.4	1412.6	1407.8	1403	1398.2	1216.8	1205.6	1194.5	1183.6	1172.7
x1 = 0.9526	1424.2	1419.4	1414.6	1409.9	1405.1	1216.8	1205.7	1194.8	1184	1173.3
x1 = 1	1428.9	1424.1	1419.4	1414.6	1409.9	1216.8	1205.8	1195	1184.2	1173.6
